In patent publication EP3181118B1, “SYNERGISTIC COMBINATION OF TXNR INHIBITORS AND ASCORBATE FOR TREATMENT OF B CELL MALIGNANCIES” (Warszawski Uniwersytet Medyczny, priority 2015, dated 2017):
Read-outs that look alike come from different tables or passages of the source.

How the values were obtained:
Raji cells [1] = assay: Number of dead cells by propidium iodide staining, flow cytometry; format: cell-based, human; conditions: 48 hours, Fig. 2; for propidium iodide-positive cells (dead cells): compound alone (L-ASC 100 µM)
Method: Raji cells were grown in RPMI medium supplemented with 10% fetal bovine serum and antibiotic/antimycotic solution. […] Cytostatic/cytotoxic effects of treatment were assessed by:
(b) Quantitation of the number of dead cells with propidium iodide staining using flow cytometry
100 µl of cells were mixed with 100 µl of propidium iodide solution (4 µg/ml in PBS) and the number of propidium iodide-positive cells (dead cells) was assessed using flow cytometer Accuri C6.

adult rats = conditions: cited from earlier work
adult mice = conditions: cited from earlier work
[2] = system: normal B cells isolated from human tonsils; assay: Non-viable cells by propidium iodide staining in normal B cells; format: cell-based; conditions: TXNR inhibitor in combination with L-ASC, 48 hours, three healthy donors, Fig. 5
Method: Human tonsils were derived from subjects undergoing tonsillectomy. After resection, tonsils were cut into small pieces and incubated in the RPMI medium supplemented with collagenase and DNase for 30 min at 37 °C with gentle shaking and filtered through 70 µm cell strainer. After washing in PBS, mononuclear cells were isolated with Histopaque 1077 density gradient and subjected to CD19 negative selection using EasySep™ Human B Cell Enrichment Kit ([…] Technologies). The purity of isolated B cells exceeded 95%. Subsequently, B cells were suspended in RPMI medium supplemented with 10% fetal bovine serum and antibiotic/antimycotic solution, and incubated with L-ASC, SK053, AUR, exactly as Raji cells (described in Example 1). After 48 hours of incubation, the number of non-viable cells was determined by flow cytometry, as the fraction of propidium iodide positive cells. […] This experiment was repeated in three different healthy donors.

Raji cells [3] = assay: MTT assay, cytostatic/cytotoxic effects; format: cell-based, human; conditions: 48 hours, Fig. 1
Method: Raji cells were grown in RPMI medium supplemented with 10% fetal bovine serum and antibiotic/antimycotic solution. Raji cells were incubated for 15 min at 37 °C with 100 µM or 200 µM L-ASC and then TXNR inhibitors, SK053 or AUR, were added and the cells were cultured for additional 48 hours. Cytostatic/cytotoxic effects of treatment were assessed by:
(a) MTT (3-[4,5-dimethylthiazol-2-yl]-2,5-diphenyltetrazolium bromide) assay
20 µl of MTT (5mg/ml in PBS) was added to 100 µl of cells and maintained in cell culture conditions. After 2 hours, 100 µl of solubilization buffer (10% SDS, 0,01N HCl) was added to each well and plates were maintained in a cell culture incubator overnight. The absorbance was measured at 560 nm using a microplate reader (ASYS UVM 340, Biochrom). The relative viability was calculated according to the following formula: % viability = [(Am - Ab)/(Ac - Ab)] × 100%, where Am is the measured absorbance, Ab is the background absorbance, and Ac is the absorbance of vehiculum-treated controls (DMSO).

[4] = cited from earlier work
[5] = cited from earlier work; remark: listed apart in the source
advanced cancers = conditions: patients with advanced cancers, L-ASC-treated subjects; cited from earlier work
Raji cells [6] = assay: Intracellular ROS level, CM-H2-DCFDA fluorescent probe, flow cytometry; format: cell-based, human
Method: The level of intracellular ROS in Raji cells treated with L-ASC and SK053 alone or in combination was evaluated. Raji cells were loaded with CM-H2-DCFDA fluorescent probe (Molecular Probes) according to the manufacturer's protocol, using 1 µM dye concentration for 30 min. at 37 °C. […] After 8 hours cells were harvested in PBS and the intensity of green fluorescence was analyzed by flow cytometry (Accuri C6).

lymphoma cells = lymphoma cells in vitro; cited from earlier work
Raji cells [7] = assay: Comparison of ascorbate stereoisomers and oxidized form combined with TXNR inhibitors (Fig. 3); format: cell-based, human; conditions: ascorbate form combined with SK053 or AUR

**Q.** For `CC(=O)OC[C@H]1O[C@@H]([S-])[C@H](OC(C)=O)[C@@H](OC(C)=O)[C@@H]1OC(C)=O.CCP(CC)CC.[Au+]` [AUR, (2,3,4,6-tetra-O-acetyl-1-thio-β-D-glucopyranosato-S-) (triethyl-phosphine) gold complex], which dead cells (Raji cells [1]; TXNR inhibitor in combination with 100 µM L-ASC) is on record?
**A.** Its dead cells is ~100%.

**Q.** What about the “propidium iodide-positive cells (dead cells)” value (Raji cells [1]) of the same compound?
**A.** The value was < 10%.

**Q.** And the “acute oral LD50” value (adult rats; adult rats, oral)?
**A.** Its value is 265 mg/kg.

**Q.** What about the minimum lethal dose (adult rats; rats) of the same compound?
**A.** Its minimum lethal dose is 30 mg/kg.

**Q.** And the “acute oral LD50” value (adult mice)?
**A.** Its value is 310 mg/kg.

**Q.** And the “synergistic cytotoxic effect with L-ASC, fraction of propidium iodide positive cells” value [2]?
**A.** The value was “synergistic cytotoxic effect between none of the TXNR inhibitors and L-ASC was observed”.

**Q.** What about the “cytostatic/cytotoxic effects of TXNR inhibitor in combination with L-ASC” value (Raji cells [3]; in combination with 100 µM or 200 µM L-ASC) of the same compound?
**A.** The value was “remarkably increased the cytostatic/cytotoxic effects”.

**Q.** And the labelled gold excreted ([4]; by day 10, total)?
**A.** The labelled gold excreted was 77%.

**Q.** What about the “labelled gold excreted with feces” value ([4]; by day 10) of the same compound?
**A.** Its value is 73%.

**Q.** And the “labelled gold excreted with urine” value ([4]; by day 10)?
**A.** Its value is 4%.

**Q.** What about the “AUR gold bound to red blood cells” value ([4]; in blood) of the same compound?
**A.** Its value is “approximately 40%”.

**Q.** What about the “AUR gold bound to serum proteins” value ([4]; in blood) of the same compound?
**A.** The value was 60%.

**Q.** What about the oral dose absorbed ([4]; oral, radiolabelled AUR) of the same compound?
**A.** Its oral dose absorbed is “approximately 25%”.

**Q.** What about the peak plasma concentrations ([4]; oral, radiolabelled AUR) of the same compound?
**A.** The peak plasma concentrations was 0.3 to 0.4 µM.

**Q.** And the “time to reach peak plasma concentrations” value ([4]; oral, radiolabelled AUR)?
**A.** The value was 1 to 2 h.

**Q.** And the mean plasma half-life ([4]; radiolabelled AUR)?
**A.** The mean plasma half-life was 17 days.

**Q.** What about the “labelled gold retained in the body” value ([4]; six months after a single dose) of the same compound?
**A.** Its value is 0,4%.

**Q.** Which results are given for `O=C1O[C@H]([C@@H](O)CO)C(O)=C1O` [L-ASC, L-ascorbate]?
**A.** plasma concentration ([5]; high oral doses): approximately 220 µM; L-ASC plasma concentrations ([5]; intravenous (i.v.) delivery): up to 20 mM; L-ASC plasma concentrations ([5]; oral administration, maximal): ≤ 300 µM; peak plasma concentrations ([5]; slow i.v. infusion of high doses): over 10 mM; propidium iodide-positive cells (dead cells) (Raji cells [1]): < 10%; viability of Raji cells (Raji cells [3]; L-ASC alone at 100 µM and 200 µM): did not affect the viability; increased mean survival time (MST) (advanced cancers): over 4 fold; ROS levels in the presence of catalase (Raji cells [6]; compound alone, with 100 µg/ml catalase, Fig. 4B): at the control levels; ROS levels (Raji cells [6]; compound alone: 100 µM ASC or 20 µM SK053, 8 hours, Fig. 4A): only slightly increased ROS levels; LD50 (lymphoma cells): ~0,5 mM

**Q.** Which “interaction with TXNR inhibitors (SK053, AUR), cytotoxicity to Raji cells” value (Raji cells [7]) does the source give for `O=C1O[C@H]([C@@H](O)CO)C(=O)C1=O` [L-DHA, dehydroascorbic acid] here?
**A.** Its value is “had no impact on cytotoxicity”.
